{"source": "patent US10004701B2", "about": "“Methods and compositions for treating infection” (UNIVERSITY OF ROCHESTER, priority 2012, dated 2018)", "experiment_in_all_cases": "AK assay 384-well format, Prestwick library screening", "key": {"[1]": {"test_system": "K. pneumoniae", "format": "cell-based, Klebsiella pneumoniae", "settings": "Klebsiella pneumoniae, 3 h, 50 μM final drug concentration"}, "[2]": {"test_system": "A. baumannii strain 98-37-09", "format": "cell-based, Acinetobacter baumannii", "settings": "Acinetobacter baumannii, 983709, 3 h, 50 μM final drug concentration"}, "[3]": {"test_system": "E. cloacae", "format": "cell-based, Enterobacter cloacae", "settings": "Enterobacter cloacae, 3 h, 50 μM final drug concentration"}, "[4]": {"test_system": "E. faecium", "format": "cell-based, Enterococcus faecium", "settings": "Enterococcus faecium, 3 h, 50 μM final drug concentration"}, "[5]": {"test_system": "P. aeruginosa", "format": "cell-based, Pseudomonas aeruginosa", "settings": "Pseudomonas aeruginosa, 3 h, 50 μM final drug concentration"}, "[6]": {"test_system": "E. coli", "format": "cell-based, Escherichia coli", "settings": "Escherichia coli, 3 h, 50 μM final drug concentration"}, "[7]": {"test_system": "S. aureus strain USA300-0114", "format": "cell-based, Staphylococcus aureus", "settings": "Staphylococcus aureus, USA300, 3 h, 50 μM final drug concentration"}, "[8]": {"settings": "planktonic, cutoff for positive-scoring molecules 3-fold increase, read-out: AK-based Prestwick Library Screening Results, K. pneumoniae (fold increase in extracellular AK activity)"}, "[9]": {"settings": "planktonic, cutoff for positive-scoring molecules 3-fold increase, read-out: AK-based Prestwick Library Screening Results, A. baumannii (fold increase in extracellular AK activity)"}, "[10]": {"settings": "planktonic, cutoff for positive-scoring molecules 3-fold increase, read-out: AK-based Prestwick Library Screening Results, E. cloacae (fold increase in extracellular AK activity)"}, "[11]": {"settings": "planktonic, cutoff for positive-scoring molecules 3-fold increase, read-out: AK-based Prestwick Library Screening Results, E. faecium (fold increase in extracellular AK activity)"}, "[12]": {"settings": "planktonic, cutoff for positive-scoring molecules 3-fold increase, read-out: AK-based Prestwick Library Screening Results, P. aeruginosa (fold increase in extracellular AK activity)"}, "[13]": {"settings": "planktonic, cutoff for positive-scoring molecules 3-fold increase, read-out: AK-based Prestwick Library Screening Results, E. coli (fold increase in extracellular AK activity)"}, "[14]": {"settings": "planktonic, cutoff for positive-scoring molecules 3-fold increase, read-out: AK-based Prestwick Library Screening Results, S. aureus (fold increase in extracellular AK activity)"}, "[15]": {"settings": "planktonic K. pneumoniae, 384-well, cutoff for positive-scoring molecules 3-fold increase, read-out: AK-based Prestwick Library Screening Results: K. pneumoniae (increase in extracellular AK activity)"}, "[16]": {"settings": "planktonic A. baumannii, 384-well, cutoff for positive-scoring molecules 3-fold increase, read-out: AK-based Prestwick Library Screening Results: A. baumannii (increase in extracellular AK activity)"}, "[17]": {"settings": "planktonic E. cloacae, 384-well, cutoff for positive-scoring molecules 3-fold increase, read-out: AK-based Prestwick Library Screening Results: E. cloacae (increase in extracellular AK activity)"}, "[18]": {"settings": "planktonic E. faecium, 384-well, cutoff for positive-scoring molecules 3-fold increase, read-out: AK-based Prestwick Library Screening Results: E. faecium (increase in extracellular AK activity)"}, "[19]": {"settings": "planktonic P. aeruginosa, 384-well, cutoff for positive-scoring molecules 3-fold increase, read-out: AK-based Prestwick Library Screening Results: P. aeruginosa (increase in extracellular AK activity)"}, "[20]": {"settings": "planktonic E. coli, 384-well, cutoff for positive-scoring molecules 3-fold increase, read-out: AK-based Prestwick Library Screening Results: E. coli (increase in extracellular AK activity)"}, "[21]": {"settings": "planktonic S. aureus, 384-well, cutoff for positive-scoring molecules 3-fold increase, read-out: AK-based Prestwick Library Screening Results: S. aureus (increase in extracellular AK activity)"}}, "note": "Where a name gives a salt, the structure may show the parent alone. Read-outs that look alike come from different tables or passages of the source."}
{"molecule": "CCN(CC)CCOC(=O)C(c1ccccc1)C1CCCCC1", "note": "(centres unmarked) [Drofenine hydrochloride]", "values": [{"measurement": "fold induction at 50 µM", "setting": "[1]; cutoff for positive-scoring molecules 3-fold increase, read-out: AK-based Prestwick Library Screening Results, K. pneumoniae (fold increase in extracellular AK activity)", "result": 1.2}, {"measurement": "fold induction at 50 µM", "setting": "[2]; cutoff for positive-scoring molecules 3-fold increase, read-out: AK-based Prestwick Library Screening Results, A. baumannii (fold increase in extracellular AK activity)", "result": 1.3}, {"measurement": "fold induction at 50 µM", "setting": "[3]; cutoff for positive-scoring molecules 3-fold increase, read-out: AK-based Prestwick Library Screening Results, E. cloacae (fold increase in extracellular AK activity)", "result": 1.5}, {"measurement": "fold induction at 50 µM", "setting": "[4]; cutoff for positive-scoring molecules 3-fold increase, read-out: AK-based Prestwick Library Screening Results, E. faecium (fold increase in extracellular AK activity)", "result": 1}, {"measurement": "fold induction at 50 µM", "setting": "[5]; cutoff for positive-scoring molecules 3-fold increase, read-out: AK-based Prestwick Library Screening Results, P. aeruginosa (fold increase in extracellular AK activity)", "result": 1.2}, {"measurement": "fold induction at 50 µM", "setting": "[6]; cutoff for positive-scoring molecules 3-fold increase, read-out: AK-based Prestwick Library Screening Results, E. coli (fold increase in extracellular AK activity)", "result": 1.5}, {"measurement": "fold induction at 50 µM", "setting": "[7]; cutoff for positive-scoring molecules 3-fold increase, read-out: AK-based Prestwick Library Screening Results, S. aureus (fold increase in extracellular AK activity)", "result": 1.5}]}
{"molecule": "CC(=O)Nc1c(I)c(C(=O)N[C@H]2C(O)O[C@H](CO)[C@@H](O)[C@@H]2O)c(I)c(N(C)C(C)=O)c1I", "note": "(some centres unmarked) [Metrizamide]", "values": [{"measurement": "fold induction at 50 µM", "setting": "[1]; planktonic, cutoff for positive 3-fold increase, read-out: AK-based Prestwick Library Screening Results, K. pneumoniae (fold increase in extracellular AK activity)", "result": 1}, {"measurement": "fold induction at 50 µM", "setting": "[2]; planktonic, cutoff for positive 3-fold increase, read-out: AK-based Prestwick Library Screening Results, A. baumannii (fold increase in extracellular AK activity)", "result": 1.3}, {"measurement": "fold induction at 50 µM", "setting": "[3]; planktonic, cutoff for positive 3-fold increase, read-out: AK-based Prestwick Library Screening Results, E. cloacae (fold increase in extracellular AK activity)", "result": 1.3}, {"measurement": "fold induction at 50 µM", "setting": "[4]; planktonic, cutoff for positive 3-fold increase, read-out: AK-based Prestwick Library Screening Results, E. faecium (fold increase in extracellular AK activity)", "result": 1}, {"measurement": "fold induction at 50 µM", "setting": "[5]; planktonic, cutoff for positive 3-fold increase, read-out: AK-based Prestwick Library Screening Results, P. aeruginosa (fold increase in extracellular AK activity)", "result": 1.2}, {"measurement": "fold induction at 50 µM", "setting": "[6]; planktonic, cutoff for positive 3-fold increase, read-out: AK-based Prestwick Library Screening Results, E. coli (fold increase in extracellular AK activity)", "result": 1.2}, {"measurement": "fold induction at 50 µM", "setting": "[7]; planktonic, cutoff for positive 3-fold increase, read-out: AK-based Prestwick Library Screening Results, S. aureus (fold increase in extracellular AK activity)", "result": 1.2}]}
{"molecule": "O=C(NCC1CCCCN1)c1cc(OCC(F)(F)F)ccc1OCC(F)(F)F", "note": "(centres unmarked) [Flecainide acetate]", "values": [{"measurement": "fold induction at 50 µM", "setting": "[1]; [8]", "result": 0.6}, {"measurement": "fold induction at 50 µM", "setting": "[2]; [9]", "result": 0.8}, {"measurement": "fold induction at 50 µM", "setting": "[3]; [10]", "result": 0.7}, {"measurement": "fold induction at 50 µM", "setting": "[4]; [11]", "result": 0.9}, {"measurement": "fold induction at 50 µM", "setting": "[5]; [12]", "result": 0.6}, {"measurement": "fold induction at 50 µM", "setting": "[6]; [13]", "result": 0.6}, {"measurement": "fold induction at 50 µM", "setting": "[7]; [14]", "result": 0.7}]}
{"molecule": "CC(C)[C@@]1(NC(=O)[C@@H]2C[C@@H]3c4cccc5[nH]cc(c45)C[C@H]3N(C)C2)O[C@@]2(O)[C@@H]3CCCN3C(=O)[C@H](Cc3ccccc3)N2C1=O", "note": "[Dihydroergocristine mesylate]", "values": [{"measurement": "fold induction at 50 µM", "setting": "[1]; [15]", "result": 0.6}, {"measurement": "fold induction at 50 µM", "setting": "[2]; [16]", "result": 0.7}, {"measurement": "fold induction at 50 µM", "setting": "[3]; [17]", "result": 0.6}, {"measurement": "fold induction at 50 µM", "setting": "[4]; [18]", "result": 0.9}, {"measurement": "fold induction at 50 µM", "setting": "[5]; [19]", "result": 0.6}, {"measurement": "fold induction at 50 µM", "setting": "[6]; [20]", "result": 0.7}, {"measurement": "fold induction at 50 µM", "setting": "[7]; [21]", "result": 0.5}]}
{"molecule": "O=C(COc1ccc(Cl)cc1)N1CCN(Cc2ccc3c(c2)OCO3)CC1", "note": "[Fipexide hydrochloride]", "values": [{"measurement": "fold induction at 50 µM", "setting": "[1]; [15]", "result": 1.1}, {"measurement": "fold induction at 50 µM", "setting": "[2]; [16]", "result": 1}, {"measurement": "fold induction at 50 µM", "setting": "[3]; [17]", "result": 1.3}, {"measurement": "fold induction at 50 µM", "setting": "[4]; [18]", "result": 1.1}, {"measurement": "fold induction at 50 µM", "setting": "[5]; [19]", "result": 1}, {"measurement": "fold induction at 50 µM", "setting": "[6]; [20]", "result": 1.3}, {"measurement": "fold induction at 50 µM", "setting": "[7]; [21]", "result": 0.9}]}
{"molecule": "C[C@@H](O)[C@H]1C(=O)N2C(C(=O)O)=C(SCCN=CN)C[C@H]12", "note": "[Imipenem]", "values": [{"measurement": "fold induction at 50 µM", "setting": "[1]; planktonic K. pneumoniae, cutoff for positive-scoring molecules 3-fold increase, read-out: AK-based Prestwick Library Screening Results, K. pneumoniae (increase in extracellular AK activity)", "result": 1.7}, {"measurement": "fold induction at 50 µM", "setting": "[2]; planktonic A. baumannii, cutoff for positive-scoring molecules 3-fold increase, read-out: AK-based Prestwick Library Screening Results, A. baumannii (increase in extracellular AK activity)", "result": 1.2}, {"measurement": "fold induction at 50 µM", "setting": "[3]; planktonic E. cloacae, cutoff for positive-scoring molecules 3-fold increase, read-out: AK-based Prestwick Library Screening Results, E. cloacae (increase in extracellular AK activity)", "result": 2.4}, {"measurement": "fold induction at 50 µM", "setting": "[4]; planktonic E. faecium, cutoff for positive-scoring molecules 3-fold increase, read-out: AK-based Prestwick Library Screening Results, E. faecium (increase in extracellular AK activity)", "result": 0.9}, {"measurement": "fold induction at 50 µM", "setting": "[5]; planktonic P. aeruginosa, cutoff for positive-scoring molecules 3-fold increase, read-out: AK-based Prestwick Library Screening Results, P. aeruginosa (increase in extracellular AK activity)", "result": 1}, {"measurement": "fold induction at 50 µM", "setting": "[6]; planktonic E. coli, cutoff for positive-scoring molecules 3-fold increase, read-out: AK-based Prestwick Library Screening Results, E. coli (increase in extracellular AK activity)", "result": 12.1}, {"measurement": "fold induction at 50 µM", "setting": "[7]; planktonic S. aureus, cutoff for positive-scoring molecules 3-fold increase, read-out: AK-based Prestwick Library Screening Results, S. aureus (increase in extracellular AK activity)", "result": 2.5}]}
{"molecule": "NC(=O)c1ccc[n+]([C@@H]2O[C@H](COP(=O)([O-])OP(=O)(O)OC[C@H]3O[C@@H](n4cnc5c(N)ncnc54)[C@H](O)[C@@H]3O)[C@@H](O)[C@H]2O)c1", "note": "[Nadide]", "values": [{"measurement": "fold induction at 50 µM", "setting": "[1]; [8]", "result": 0.7}, {"measurement": "fold induction at 50 µM", "setting": "[2]; [9]", "result": 0.8}, {"measurement": "fold induction at 50 µM", "setting": "[3]; [10]", "result": 0.9}, {"measurement": "fold induction at 50 µM", "setting": "[4]; [11]", "result": 0.9}, {"measurement": "fold induction at 50 µM", "setting": "[5]; [12]", "result": 0.8}, {"measurement": "fold induction at 50 µM", "setting": "[6]; [13]", "result": 0.9}, {"measurement": "fold induction at 50 µM", "setting": "[7]; [14]", "result": 0.6}]}
{"molecule": "O=P1(NCCCl)OCCCN1CCCl", "note": "(centres unmarked) [Ifosfamide]", "values": [{"measurement": "fold induction at 50 µM", "setting": "[1]; [8]", "result": 0.7}, {"measurement": "fold induction at 50 µM", "setting": "[2]; [9]", "result": 0.8}, {"measurement": "fold induction at 50 µM", "setting": "[3]; [10]", "result": 1.4}, {"measurement": "fold induction at 50 µM", "setting": "[4]; [11]", "result": 0.8}, {"measurement": "fold induction at 50 µM", "setting": "[5]; [12]", "result": 0.9}, {"measurement": "fold induction at 50 µM", "setting": "[6]; [13]", "result": 9}, {"measurement": "fold induction at 50 µM", "setting": "[7]; [14]", "result": 0.8}]}
